Experimental data published in patent publication US9663496B2, “AMPK-activating heterocyclic compounds and methods for using the same” (Rigel Pharmaceuticals, Inc., priority 2010, dated 2017).

Target: AMPK
Assay: AMPK activation, enzyme-linked immunosorbent assay
Type: biochemical
Conditions: EC50 for AMPK activation, ELISA
How it was run: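 Test compounds were added, and kinase activation was then detected by immunoassay following established kit procedures.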

EC50 [nM]	Compound
< 500	COc1cccc(OC2CCCN(C(=O)c3ccc(C(=O)NC4CCN(Cc5ccc(C#N)cc5)CC4)nc3)C2)c1 (centres unmarked) [Compound 277, N-(1-(4-cyanobenzyl)piperidin-4-yl)-5-(3-(3-methoxyphenoxy)piperidine-1-carbonyl)picolinamide]
< 500	N#Cc1ccc(CN2CCC(NC(=O)c3ccc(C(=O)N4CC[C@@H](Oc5ccc(F)cc5)C4)cn3)CC2)cc1 [Compound 278, (R)—N-(1-(4-cyanobenzyl)piperidin-4-yl)-5-(3-(4-fluorophenoxy)pyrrolidine-1-carbonyl)picolinamide]
< 500	N#Cc1ccc(CN2CCC(NC(=O)c3ccc(C(=O)N4CCC(C(=O)c5ccc(F)c(F)c5)CC4)cn3)CC2)cc1 [Compound 281, N-(1-(4-cyanobenzyl)piperidin-4-yl)-5-(4-(3,4-difluorobenzoyl)piperidine-1-carbonyl)picolinamide]
< 500	N#Cc1ccc(CN2CCC(NC(=O)c3ccc(C(=O)N4CCC(Oc5ccc(F)cc5F)CC4)cn3)CC2)cc1 [Compound 282, N-(1-(4-cyanobenzyl)piperidin-4-yl)-5-(4-(2,4-difluorophenoxy)piperidine-1-carbonyl)picolinamide]
< 500	N#Cc1ccc(CN2CCC(NC(=O)c3ccc(C(=O)N4CCC(Oc5cccnc5)CC4)cn3)CC2)cc1 [Compound 283, N-(1-(4-cyanobenzyl)piperidin-4-yl)-5-(4-(pyridin-3-yloxy)piperidine-1-carbonyl)picolinamide]
< 500	CCOC(=O)c1ccc(OC2CCN(C(=O)c3ccc(C(=O)NC4CCN(Cc5ccc(C#N)cc5)CC4)nc3)CC2)cc1 [Compound 284, ethyl 4-(1-(6-(1-(4-cyanobenzyl)piperidin-4-ylcarbamoyl)nicotinoyl)piperidin-4-yloxy)benzoate]
< 500	COc1ccc(C(=O)C2CCN(C(=O)c3ccc(C(=O)NC4CCN(Cc5cc(F)cc(F)c5)CC4)nc3)CC2)cc1 [Compound 287, N-(1-(3,5-difluorobenzyl)piperidin-4-yl)-5-(4-(4-methoxybenzoyl)piperidine-1-carbonyl)picolinamide]
< 500	O=C(NC1CCN(Cc2cc(F)cc(F)c2)CC1)c1ccc(C(=O)N2CC[C@H](Oc3ccc(F)cc3)C2)cn1 [Compound 292, N-(1-(3,5-difluorobenzyl)piperidin-4-yl)-5-((S)-3-(4-fluorophenoxy)pyrrolidine-1-carbonyl)picolinamide]
< 500	O=C(NC1CCN(Cc2cc(F)cc(F)c2)CC1)c1ccc(C(=O)N2CCC(Oc3ccc(C(F)(F)F)cc3)CC2)cn1 [Compound 294, N-(1-(3,5-difluorobenzyl)piperidin-4-yl)-5-(4-(4-(trifluoromethyl)phenoxy)piperidine-1-carbonyl)picolinamide]
< 500	COc1ccc(OC2CCN(C(=O)c3ccc(C(=O)NC4CCN(Cc5cc(F)cc(F)c5)CC4)nc3)CC2)cc1 [Compound 296, N-(1-(3,5-difluorobenzyl)piperidin-4-yl)-5-(4-(4-methoxyphenoxy)piperidine-1-carbonyl)picolinamide]
< 500	COc1ccc(C(=O)C2CCN(C(=O)c3ccc(C(=O)N[C@H]4CC[C@@H](Oc5cc(F)cc(F)c5)CC4)nc3)CC2)cc1 [Compound 300, N-((cis)-4-(3,5-difluorophenoxy)cyclohexyl)-5-(4-(4-methoxybenzoyl)piperidine-1-carbonyl)picolinamide]
< 500	N#Cc1ccc(CN2CCC(NC(=O)c3ccc(N4CCC(Oc5ccc(C(F)(F)F)cc5)CC4)cn3)CC2)cc1 [Compound 301, N-(1-(4-cyanobenzyl)piperidin-4-yl)-5-(4-(4-(trifluoromethyl)phenoxy)piperidin-1-yl)picolinamide]
< 500	COc1ccc(C(=O)C2CCN(c3ccc(C(=O)NC4CCN(Cc5ccc(C#N)cc5)CC4)nc3)CC2)cc1 [Compound 302, N-(1-(4-cyanobenzyl)piperidin-4-yl)-5-(4-(4-methoxybenzoyl)piperidin-1-yl)picolinamide]
< 500	O=C(N[C@H]1CC[C@@H](Oc2ccc(F)cc2)CC1)c1ccc(C(=O)N2CCC(C(=O)c3ccc(F)cc3)CC2)cn1 [Compound 304, 5-(4-(4-fluorobenzoyl)piperidine-1-carbonyl)-N-((cis)-4-(4-fluorophenoxy)cyclohexyl)picolinamide]
< 500	COc1ccc(C(=O)C2CCN(C(=O)c3ccc(C(=O)NCCOc4ccc(F)cc4)nc3)CC2)cc1 [Compound 305, N-(2-(4-fluorophenoxy)ethyl)-5-(4-(4-methoxybenzoyl)piperidine-1-carbonyl)picolinamide]
< 500	O=C(NC1CCN(Cc2cc(F)cc(F)c2)CC1)c1ccc(C(=O)N2CC(OCc3ccc(F)cc3)C2)cn1 [Compound 308, N-(1-(3,5-difluorobenzyl)piperidin-4-yl)-5-(3-(4-fluorobenzyloxy)azetidine-1-carbonyl)picolinamide]
< 500	COc1ccc(C(=O)C2CCN(C(=O)c3ccc(C(=O)N[C@H]4CC[C@@H](Oc5ccc(F)cc5)CC4)nc3)CC2)cc1 [Compound 311, N-((cis)-4-(4-fluorophenoxy)cyclohexyl)-5-(4-(4-methoxybenzoyl)piperidine-1-carbonyl)picolinamide]

Second part, the compound before the results:

Compound	EC50 [nM]
N#Cc1ccc(CN2CCC(NC(=O)c3ccc(C(=O)N4C5CCC4CC(Oc4ccc(C#N)cc4)C5)cn3)CC2)cc1 [Compound 280, N-(1-(4-cyanobenzyl)piperidin-4-yl)-5-((1R,3r,5S)-3-(4-cyanophenoxy)-8-azabicyclo[3.2.1]octane-8-carbonyl)picolinamide]	< 500
COc1ccc(CN2CCC(NC(=O)c3ccc(C(=O)N4CCN(Cc5ccc(C#N)cc5)CC4)cn3)CC2)cc1 [Compound 285, 5-(4-(4-cyanobenzyl)piperazine-1-carbonyl)-N-(1-(4-methoxybenzyl)piperidin-4-yl)picolinamide]	< 500
O=C(NC1CCN(Cc2cc(F)cc(F)c2)CC1)c1ccc(C(=O)N2CCC(C(=O)c3ccc(F)cc3)CC2)cn1 [Compound 288, N-(1-(3,5-difluorobenzyl)piperidin-4-yl)-5-(4-(4-fluorobenzoyl)piperidine-1-carbonyl)picolinamide]	< 500
N#Cc1ccc(OC2CCN(C(=O)c3ccc(C(=O)NC4CCN(Cc5cc(F)cc(F)c5)CC4)nc3)CC2)cc1 [Compound 289, 5-(4-(4-cyanophenoxy)piperidine-1-carbonyl)-N-(1-(3,5-difluorobenzyl)piperidin-4-yl)picolinamide]	< 500
CC(C)(C)OC(=O)NCCCc1cc(C(=O)N2CCN(Cc3ccc(F)cc3)CC2)cnc1C(=O)NC1CCN(Cc2ccc(C#N)cc2)CC1 [Compound 290, tert-butyl 3-(2-(1-(4-cyanobenzyl)piperidin-4-ylcarbamoyl)-5-(4-(4-fluorobenzyl)piperazine-1-carbonyl)pyridin-3-yl)propylcarbamate]	< 500
N#Cc1ccc(CN2CCC(NC(=O)c3ncc(C(=O)N4CCN(Cc5ccc(F)cc5)CC4)cc3CCCNC(=O)CCOCCOCCOCCOCCNC(=O)CCCC[C@@H]3SC[C@@H]4NC(=O)N[C@@H]43)CC2)cc1 [Compound 291, N-(1-(4-cyanobenzyl)piperidin-4-yl)-3-(5,21-dioxo-25-((3aS,4S,6aR)-2-oxohexahydro-1H-thieno[3,4-d]imidazol-4-yl)-8,11,14,17-tetraoxa-4,20-diazapentacosyl)-5-(4-(4-fluorobenzyl)piperazine-1-carbonyl)picolinamide]	< 500
O=C(NC1CCN(Cc2cc(F)cc(F)c2)CC1)c1ccc(C(=O)N2CCC(Oc3ccc(F)c(F)c3)CC2)cn1 [Compound 297, N-(1-(3,5-difluorobenzyl)piperidin-4-yl)-5-(4-(3,4-difluorophenoxy)piperidine-1-carbonyl)picolinamide]	< 500
O=C(NC1CCN(Cc2cc(F)cc(F)c2)CC1)c1ccc(C(=O)N2CCC(C(=O)c3ccc(F)c(F)c3)CC2)cn1 [Compound 298, 5-(4-(3,4-difluorobenzoyl)piperidine-1-carbonyl)-N-(1-(3,5-difluorobenzyl)piperidin-4-yl)picolinamide]	< 500
N#Cc1ccc(OC2CCN(C(=O)c3ccc(C(=O)N[C@H]4CC[C@@H](Oc5ccc(F)cc5)CC4)nc3)CC2)cc1 [Compound 303, 5-(4-(4-cyanophenoxy)piperidine-1-carbonyl)-N-((cis)-4-(4-fluorophenoxy)cyclohexyl)picolinamide]	< 500
N#Cc1ccc(OC2CCN(C(=O)c3ccc(C(=O)NCCOc4ccc(F)cc4)nc3)CC2)cc1 [Compound 306, 5-(4-(4-cyanophenoxy)piperidine-1-carbonyl)-N-(2-(4-fluorophenoxy)ethyl)picolinamide]	< 500
N#Cc1ccc(CN2CCC(NC(=O)c3ccc(C(=O)N4CC(OCc5ccc(F)cc5)C4)cn3)CC2)cc1 [Compound 307, N-(1-(4-cyanobenzyl)piperidin-4-yl)-5-(3-(4-fluorobenzyloxy)azetidine-1-carbonyl)picolinamide]	500 to 1000
COc1ccc(C(=O)C2CCN(C(=O)c3ccc(C(=O)NC4CCN(Cc5ccc(C#N)cc5)CC4)cn3)CC2)cc1 [Compound 309, N-(1-(4-cyanobenzyl)piperidin-4-yl)-6-(4-(4-methoxybenzoyl)piperidine-1-carbonyl)nicotinamide]	< 500
O=C(N[C@H]1CC[C@@H](Oc2ccc(F)cc2)CC1)c1ccc(C(=O)N2CCC(Oc3ccc(F)cc3)CC2)cn1 [Compound 312, N-((cis)-4-(4-fluorophenoxy)cyclohexyl)-5-(4-(4-fluorophenoxy)piperidine-1-carbonyl)picolinamide]	< 500
N#Cc1ccc(OC2CN(C(=O)c3ccc(C(=O)NC4CCN(Cc5cc(F)cc(F)c5)CC4)nc3)C2)cc1 [Compound 313, 5-(3-(4-cyanophenoxy)azetidine-1-carbonyl)-N-(1-(3,5-difluorobenzyl)piperidin-4-yl)picolinamide]	< 500
N#Cc1ccc(-c2nnc3n2CCN(C(=O)c2ccc(C(=O)NC4CCN(Cc5cc(F)cc(F)c5)CC4)nc2)C3)cc1 [Compound 314, 5-(3-(4-cyanophenyl)-5,6,7,8-tetrahydro-[1,2,4]triazolo[4,3-a]pyrazine-7-carbonyl)-N-(1-(3,5-difluorobenzyl)piperidin-4-yl)picolinamide]	> 10000
